How the values were obtained:
[1] = Solubility in water and culture medium; assay type: physicochemical; details: physiological pH
[2] = prior art amino acid; cited from earlier work
[3] = Light-induced isomerization of Caf, analysis by HPLC; assay type: physicochemical; details: for isomer composition after irradiation with green light (HPLC): green LED light, λ=520 nm, after UV irradiation; for isomer composition before irradiation (HPLC): ground state, prior to irradiation
Method: 500 μl of a 60 μM solution of Caf (7) in water was placed in a 1.5 ml HPLC vial (Screw neck vial N9, amber glass, 11.6×32 mm; Macherey Nagel, Duren, Germany) and irradiated with a UV LED (λ=353 nm, NS355L-5RLO; Nitride Semiconductors, Tokushima, Japan) for 30 min directly from the top. Before and after irradiation, a 20 μl sample of the solution was withdrawn and analyzed by HPLC on a Purospher RP-8e 250×3 mm column (Merck), applying a concentration gradient of 10-12% acetonitrile (ACN) in 50 mM NH4OAc buffer pH 8 over 10 min (flow rate 0.6 ml/min). Another sample was analyzed in the same manner after irradiation with green LED light (λ=520 nm, LL-504PGC2E-G5-2CC, Lucky Light Electronics, Hongkong, China). […] The chromatograms reveal that the cis and trans isomers of (7) can be separated by HPLC (cis-(7) tR=3.6 min, trans-(7) tR=4.6 min). […] However, it should be taken into account that also during HPLC analysis reisomerization of cis-(7) to trans-(7) takes place, so the proportion of cis-(7) after irradiation with UV light might actually be higher than indicated by HPLC chromatograms. Thus, if the light-switchable polypeptide of the present invention is applied for an affinity chromatography procedure, and the trans configuration corresponds to the high affinity state whereas the cis configuration corresponds to the low affinity conformation, then the highest degree of binding and the highest degree of elution of the molecule of interest takes place at 430 nm and 330 nm, respectively. However, conventional light sources usually provide light having wavelengths that are around 530 nm (visible light) and 365 nm (UV light). Therefore, also light providing these wavelengths (i.e. around 530 nm and/or around 365 nm) may be used in accordance with the present invention.

[4] = Light-induced isomerization of Caf, analysis by UV-VIS spectroscopy; assay type: physicochemical; details: 30 μM aqueous solution; alternating UV and green LED irradiation over 3 cycles
From the text: The electronic transition π→π* is usually in the near UV region around 340 nm (Sension et al. 1993 J. Chem. Phys. 98: 6291-6315) whereas the electronic transition n→π* is usually located in the visible (VIS) region around 420 nm and is due to the presence of unshared electron pairs of the nitrogen atoms (Naegele et al. 1997 Chem. Phys. Lett. 272: 489-495). To examine whether the synthesized non-natural amino acid Caf (7) can respond to photoswitching induced by UV light, the compound was subjected to alternating irradiation cycles. In a typical experiment, 0.5 ml of a 30 μM aqueous solution was placed in a quartz cuvette with 1 cm optical pathlength. Then the sample was irradiated for 30 min from the top using a UV LED (NS355L-5RLO; Nitride Semiconductors, Tokushima, Japan) with 353 nm or a green LED (LL-504PGC2E-G5-2CC; Lucky Light Electronics, Hongkong, China) with 520 nm emitting wavelength. The change in intensity of the π-π* band at around 340 nm corresponding to the trans/cis isomerization (FIG. 4A) was monitored with a computer controlled photometer (Ultrospec 2100 pro, Amersham Biosciences).

Compound: N[C@@H](Cc1ccc(N=Nc2cccc(C(=O)O)c2)cc1)C(=O)O [3′-carboxyphenylazophenylalanine, 4-[(3-Carboxyphenyl)azo]-L-phenylalanine]
- solubility in water and LB culture medium [1]: good solubility

Compound: N[C@@H](Cc1ccc(N=Nc2ccccc2)cc1)C(=O)O [AzoPhe]
- solubility in water as well as culture media [2]: extremely poor solubility

Compound: N[C@@H](Cc1ccc(N=Nc2ccc(C(=O)O)cc2)cc1)C(=O)O [Caf, 4-[(4-carboxyphenyl)azo]-L-phenylalanine]
- isomer composition after irradiation with UV light (HPLC) ([3]; after irradiation with UV light): mostly cis isomer
- proportion of cis-(7) ([3]; after irradiation with UV light for 30 min, 60 μM in water, HPLC at 286 nm): up to 86%
- isomer composition after irradiation with green light (HPLC) [3]: recovering the ground state
- isomer composition after irradiation with green light (HPLC) ([3]; listed as 7): mostly trans isomer
- isomer composition before irradiation (HPLC) [3]: only energetically favored trans-(7)
- isomer composition before irradiation (HPLC) ([3]; listed as 7): essentially pure trans isomer
- photoswitching between trans and cis configuration (absorbance at about 340 nm) [4]: reversible photoswitching
- solubility in water and LB culture medium [1]: good solubility
